Legend:
[1] = tested on: SIRT1; assay: SIRT1 deacetylase activity in live SMCs (Fluor de Lys-SIRT1 substrate, TSA-independent); assay type: cell-based, human; conditions: HITC6 SMCs incubated with 10 nM FK866, 48 h
Procedure: In vivo assessment of SIRT1 deacetylase activity. Cell-based assessment of SIRT1-like enzymatic activity was performed using the Fluor de lys-SIRT1 substrate (Biomol, Plymouth Meeting, Pa.), as previously described (de Boer, 2006). SMCs in phenol-red free M199 with 5% FBS were incubated for 2 h with 5 μM TSA followed by addition of the fluorogenic substrate for 4 h. Signal was quantified by spectrofluorimetry (Wallac, Wellesley, Mass.) and normalized to total protein content.
Assessment of SIRT1 Deacetylase Activity. SIRT1 deacetylase activity was quantified in live cells as previously reported (de Boer et al, 2006). SMCs cultured in phenol red-free M199 were incubated without serum for 2 h with 1 μM trichostatin A (Sigma, St. Louis, Mo., USA) followed by addition of 25 μM Fluor-de-Lys-SIRT1 fluorogenic substrate (Biomol, Plymouth Meeting, Pa., USA) for 4 h. Media containing fluorogenic substrate and reaction product was incubated with an equal volume of SIRT1 assay buffer containing 2 mM nicotinamide and developer (Biomol, Plymouth Meeting, Pa., USA). Signal was quantified by spectrofluorometry (Wallac VICTOR-1420, PerkinElmer Life Science, Waltham, Mass., USA) and normalized to total protein content

[2] = molecular target: T1, Nampt (Homo sapiens, UniProt P43490); assay: Nicotinamide phosphoribosyltransferase (Nampt/PBEF) activity in SMC lysates, [14C]nicotinamide to NMN; assay type: cell-based
T1 construct: endogenous in cells; host or cells: human vascular SMCs (primary and HITC6), whole cell lysates
Procedure: Nicotinamide Phosphoribosyltransferase Activity. […] Labelled acetone-precipitable nicotinamide mononucleotide was quantified by scintillation counting.
Assessment of Nicotinamide Phosphoribosyltransferase Activity. […] Briefly, SMCs were lysed in buffer containing 10 mM NaH2PO4/Na2HPO4, at pH 8.8. Cell lysates were incubated with 0.5 μM [carbonyl-^14C]nicotinamide and 0.5 mM phosphoribosylpyrophosphate for 4 h on a rotating rocker at 37° C.

[3] = tested on: HITC6 SMCs; assay: Senescence-associated beta-galactosidase activity / senescence-free survival; assay type: cell-based, human; conditions: successive subcultures incubated with 10 nM FK866; p<0.0001
Procedure: Senescence-associated β-Galatosidase Activity Assay. SMCs on glass coverslips at approximately 70% confluence were fixed in 2% formaldehyde/0.2% glutaraldehyde in PBS for 3 minutes and incubated with X-gal-containing reaction mixture, as previously described (Dimri, 1995). Washed cells were stained with Hoechst 33258 (2.5 μg/ml) and the proportion of senescence-associated β-galactosidase (SA β-Gal)-positive cells quantified from 10 microscope fields of view (Olympus BX51, ×20 objective, approximately 1200 cells). Senescence-free survival was determined using Kaplan-Meier analysis of survival vs. replicative age.
Senescence-associated Beta-galactosidase Activity. Senescence-associated beta-galactosidase (SA-β-gal) activity was determined as previously described (Dimri et al, 1995). Briefly, SMCs were fixed in PBS containing 2% formaldehyde/0.2% glutaraldehyde for 3 min at room temperature. Fixed cells were then incubated for 4-6 h at 37° C. with SA-β-gal stain solution containing 150 mM NaCl, 2 mM MgCl, 40 mM citrate, 5 mM potassium ferrocyanide, 5 mM potassium ferricyanide, and 1 mg/ml of 5-bromo-4-chloro-3-indolyl-β-D-galactopyranoside (X-gal) (Invitrogen, Carlsbad, Calif., USA), at pH 6.0. SMCs were counterstained with 2.5 μg/ml Hoechst 33258 to detect cell nuclei. The proportion of SA-β-gal activity positive cells was quantified using light and fluorescence microscopy (Olympus BX51, Center Valley, Pa., USA).

T1 sequence (P43490 whole entry): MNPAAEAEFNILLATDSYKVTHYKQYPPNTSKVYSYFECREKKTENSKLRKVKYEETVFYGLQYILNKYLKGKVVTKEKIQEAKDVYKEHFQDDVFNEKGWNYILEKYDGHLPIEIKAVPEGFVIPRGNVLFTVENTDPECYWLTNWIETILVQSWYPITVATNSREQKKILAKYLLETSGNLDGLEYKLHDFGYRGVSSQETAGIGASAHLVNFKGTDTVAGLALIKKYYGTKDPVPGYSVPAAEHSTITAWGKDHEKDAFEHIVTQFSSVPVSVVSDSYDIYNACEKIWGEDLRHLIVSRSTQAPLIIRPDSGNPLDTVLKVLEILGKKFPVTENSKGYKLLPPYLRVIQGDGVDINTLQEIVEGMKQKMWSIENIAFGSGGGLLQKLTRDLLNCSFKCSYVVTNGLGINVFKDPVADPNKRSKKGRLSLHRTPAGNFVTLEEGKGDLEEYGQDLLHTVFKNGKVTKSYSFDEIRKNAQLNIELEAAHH

SIRT1 activity [1]: substantial loss | PBEF activity in SMCs, % of baseline ([2]; 10 nM FK866): 22±2% | Nampt activity relative to basal level ([2]; SMCs incubated with 10 nM FK866, p<0.001): 0.11±0.05
Structure (SMILES): O=C(/C=C/c1cccnc1)NCCCCC1CCN(C(=O)c2ccccc2)CC1 [FK866, reference compound]
senescence-free survival (Kaplan-Meier) [3]: substantially shortened

From patent publication US20080318892A1, “METHODS AND FORMULATIONS FOR PROTECTING CELLS, AND FOR TREATING DISEASES AND CONDITIONS BY OPTIMIZING THE INTRACELLULAR CONCENTRATION OF NAD” (priority 2007, published 2008)
